Laboratory results as given in ChEMBL document CHEMBL1201862, “PubChem BioAssay data set” (2004).
The source made the active and inactive calls. Rule as the data show it: actives have a measured IC50 and inactives only a lower limit.

Target: Envelope glycoprotein gp160 (Human immunodeficiency virus 1, UniProt Q6QLK5)
Test: cell-free HIV fusion peptide-binding blockers – biochemical, uHTS, fluorescence dequenching, […] (AID 1986)

Envelope glycoprotein gp160, sequence (Q6QLK5 whole entry, the tested form may be a part): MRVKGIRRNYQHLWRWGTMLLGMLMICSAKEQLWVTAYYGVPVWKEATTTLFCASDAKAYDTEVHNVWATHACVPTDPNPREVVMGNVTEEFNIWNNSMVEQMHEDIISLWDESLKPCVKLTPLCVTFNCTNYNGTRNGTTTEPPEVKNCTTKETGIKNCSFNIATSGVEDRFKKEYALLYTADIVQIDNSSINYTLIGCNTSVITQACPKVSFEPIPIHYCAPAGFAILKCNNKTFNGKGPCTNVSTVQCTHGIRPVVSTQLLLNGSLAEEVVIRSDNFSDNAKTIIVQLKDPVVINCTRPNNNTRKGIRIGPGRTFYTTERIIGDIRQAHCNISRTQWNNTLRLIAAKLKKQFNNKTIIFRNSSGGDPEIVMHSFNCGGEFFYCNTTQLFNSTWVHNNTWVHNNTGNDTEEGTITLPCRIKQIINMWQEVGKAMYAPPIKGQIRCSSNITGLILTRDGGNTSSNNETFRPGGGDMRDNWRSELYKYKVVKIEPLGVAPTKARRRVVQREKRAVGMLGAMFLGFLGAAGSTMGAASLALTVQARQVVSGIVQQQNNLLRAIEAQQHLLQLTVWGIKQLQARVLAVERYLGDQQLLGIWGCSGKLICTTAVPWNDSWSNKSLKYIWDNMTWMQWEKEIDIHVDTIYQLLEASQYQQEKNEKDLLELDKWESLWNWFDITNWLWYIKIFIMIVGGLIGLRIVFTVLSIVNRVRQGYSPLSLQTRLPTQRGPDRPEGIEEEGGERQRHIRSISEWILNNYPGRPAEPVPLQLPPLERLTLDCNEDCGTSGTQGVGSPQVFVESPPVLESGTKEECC

| Structure (SMILES) | IC50 |
| --- | --- |
| COc1ccc(-c2nn(-c3ccccc3)cc2/C=C\C(=O)Nc2ccc(C(=O)O)cc2)cc1 | 18.3 µM (active) |
| CC1=C(C(=O)Nc2ccccc2)C(c2ccc(Cl)cc2)n2c(s/c(=C/c3cccc(OCC(=O)O)c3)c2=O)=N1 (configuration not stated) | 16.8 µM (active) |
